ChEMBL document CHEMBL3045080, “Baseline susceptibility to chlorantraniliprole of Brazilian populations of Plutella xylostella” (2012)

Assays:
Assay type in all cases: functional
Plutella xylostella [1] = experiment: Insecticidal activity against Plutella xylostella (diamondback moth) CG1 using topical method of compound application
Plutella xylostella [2] = experiment: Insecticidal activity against Plutella xylostella (diamondback moth) CG1 using leaf dip immersion method of compound application
Plutella xylostella [3] = experiment: Insecticidal activity against Plutella xylostella (diamondback moth) CG1 using potter tower method of compound application
Plutella xylostella [4] = experiment: Insecticidal activity against Plutella xylostella (diamondback moth) Brazilian field isolates

SMILES: CNC(=O)c1cc(Cl)cc(C)c1NC(=O)c1cc(Br)nn1-c1ncccc1Cl [CHLORANTRANILIPROLE]
- LC50 (Plutella xylostella [1]): 1.422 mgAi/L
- LC95 (Plutella xylostella [1]): 35.13 mgAi/L
- LC99 (Plutella xylostella [1]): 132.65 mgAi/L
- LC50 (Plutella xylostella [2]): 0.02 mgAi/L
- LC95 (Plutella xylostella [2]): 0.046 mgAi/L
- LC99 (Plutella xylostella [2]): 0.066 mgAi/L
- LC50 (Plutella xylostella [3]): 0.018 mgAi/L
- LC95 (Plutella xylostella [3]): 0.073 mgAi/L
- LC99 (Plutella xylostella [3]): 0.13 mgAi/L
- LC50 (Plutella xylostella [4]): 0.025 mgAi/L
- LC99 (Plutella xylostella [4]): 0.212 mgAi/L
